{"source": "paper PMC6382696", "about": "“Drug Repurposing: The Anthelmintics Niclosamide and Nitazoxanide Are Potent TMEM16A Antagonists That Fully Bronchodilate Airways” (Frontiers in Pharmacology, 2019)", "key": {"[1]": {"system": "primary human airway smooth muscle cells", "experiment": "Methacholine-induced depolarization of primary human airway smooth muscle cells", "format": "cell-based", "conditions": "donor 199524, 20 M methacholine (so in the source), read-out: EC50 inhibition of methacholine-induced depolarization (converted)", "description": "Cultured human bronchial smooth muscle cells (BSMC) from Lonza were resuspended in Smooth Muscle Growth Medium-2 (SmGM-2; Lonza) at a concentration of 4 × 10^5 cells per ml. One hundred microliters of cells per well were plated in a black wall clear bottom polystyrene 96-well tissue culture plate and incubated in a 37°C humidified incubator with 5% CO2 overnight. Cells were serum starved by removing the SmGM-2 and replaced with one hundred microliters per well of Smooth Muscle Cell Basal Medium 2 (SmBM-2), phenol red-free (PromoCell), and incubated in a 37°C humidified incubator with 5% CO2 for 24 h. SmBM-2 was replaced with 100 microliters of fresh SmBM-2. […] Using the FLIPR-Tetra (Molecular Devices), three measurements of the baseline fluorescence were taken over the span of 1 min. […] Fifty-five fluorescence measurements were taken over the span of 14 min. The area under the curve (AUC) from the fluorescence kinetic traces (normalized to baseline fluorescence) were calculated. The amount of fluorescence in the presence of compound compared with that in the presence of DMSO vehicle alone (HI control) was calculated using the formula: % control (POC) = (compd – average LO)/(average HI – average LO)^∗100. […]\nPanels (B-D) show raw fluorescence data from the membrane potential assay of buffer alone (dashed line), buffer plus 20 µM methacholine […]\nRFU = relative fluorescence units. […]"}, "mouse tracheal rings [2]": {"system": "mouse tracheal rings", "experiment": "Bronchodilation of cytokine-treated mouse tracheal rings", "conditions": "overnight IL-1β, TNFα, IL-13 100 ng/ml, EC75 carbachol", "description": "Airway rings were treated overnight in 2 ml DMEM + PSG/HEPES/AA/NaPyr buffer alone or with the same solution supplemented with 100 ng/ml of mTNFα, mIL-13 and mIL-1β. Unlike like the typical Wake-Up protocol and ring qualifying tests, mouse tracheal rings were not exposed to KPSS and rings were not observed to relax with a β-agonist following discovery of CCh dose-responses. After several washes with PSS, EC75 concentrations of CCh were used to pre-contract rings for >30 min alone or in the presence of cytokines."}, "HCT116": {"system": "HCT116", "design": "method as in Li et al., 2014", "conditions": "ref Li et al., 2014, read-out: IC50 inhibition of proliferation; cited from earlier work"}, "COLO205": {"system": "COLO205", "design": "method as in Li et al., 2014", "conditions": "ref Li et al., 2014, read-out: IC50 inhibition of proliferation; cited from earlier work"}, "HT29": {"system": "HT29", "design": "method as in Li et al., 2014", "conditions": "ref Li et al., 2014, read-out: IC50 inhibition of proliferation; cited from earlier work"}, "mouse airway rings": {"system": "mouse airway rings", "experiment": "Duration of bronchodilation after washout and carbachol re-challenge, mouse airway rings", "conditions": "EC75 carbachol, preliminary", "description": "Mouse airway rings were exposed to a typical Wake-Up procedure including the use of KPSS and discovery of EC75 CCh dose responses. However, no isoproterenol was used to observe tissue relaxation as part of the qualification procedure. With pre-contraction with EC75 CCh for >30 min, rings were subjected to a compound dose-response, followed by a complete washout of compound, and re-contracted with EC75 CCh. Traces were recorded for several hours thereafter and normalized to theophylline as control of 100% relaxation."}, "mouse tracheal rings [3]": {"system": "mouse tracheal rings", "experiment": "β-agonist use-dependent desensitization of mouse tracheal rings", "conditions": "add-on after isoproterenol round 2", "excerpt": "Standard procedures were used to prepare and mount tissues."}}, "note": "“Also recorded” adds a separate entry of the source.", "data": [{"smiles": "Oc1ccc(Cl)cc1Cc1cc(Cl)ccc1O", "note": "[Dichlorophen]", "values": [{"measurement": "EC50", "setting": "[1]", "result": 3700, "unit": "nM"}]}, {"smiles": "O=C(Nc1ccc([N+](=O)[O-])cc1Cl)c1cc(Cl)ccc1O", "note": "[Niclosamide]", "values": [{"measurement": "bronchodilation of cytokine-treated airways", "setting": "mouse tracheal rings [2]", "result": "fully bronchodilated"}, {"measurement": "IC50", "setting": "HCT116", "result": 370, "unit": "nM"}, {"measurement": "IC50", "setting": "COLO205", "result": 980, "unit": "nM"}, {"measurement": "IC50", "setting": "HT29", "result": 4170, "unit": "nM"}, {"measurement": "duration of bronchodilation after washout and re-challenge", "setting": "mouse airway rings", "result": "long lasting; also recorded: sustained bronchodilation lasting several hours"}]}, {"smiles": "COc1cc([N+](=O)[O-])ccc1NC(=O)c1cc(Cl)c2ccccc2c1O", "note": "[Cpd 4]", "values": [{"measurement": "% relaxation after add-on to desensitized ring", "setting": "mouse tracheal rings [3]; EC50 carbachol", "result": 98.9, "unit": "%"}, {"measurement": "% relaxation after add-on to desensitized ring", "setting": "mouse tracheal rings [3]; EC75 carbachol", "result": 95.4, "unit": "%"}]}, {"smiles": "CCc1oc2ccccc2c1C(=O)c1cc(Br)c(O)c(Br)c1", "note": "[Benzbromarone]", "values": [{"measurement": "bronchodilation of cytokine-treated airways", "setting": "mouse tracheal rings [2]", "result": "fully bronchodilated"}, {"measurement": "duration of bronchodilation after washout and re-challenge", "setting": "mouse airway rings", "result": "long lasting; also recorded: sustained bronchodilation lasting several hours"}]}]}
